The values that follow come from patent publication US20070207993A1, “Molybdenum carbonyl complexes for treating rheumatoid arthritis and other inflammatory diseases” (Alfama - Investigacao e Desenvolvimetno De Productos …, priority 2005, published 2007).

Series [1] is described as follows: CO release in the presence of reactive oxygen species (TBHP, H2O2, KO2). To be noted: 25° C., dark; for Equivalents of CO2 released, H2O2 / Equivalents of CO released, H2O2: H2O2 100:1, water; for Equivalents of CO2 released, TBHP / Equivalents of CO released, TBHP: TBHP 100:1, water. It counts as physicochemical. As for the experimental part:
The studies were done using the same method and apparatus described in Example 7 with the following modifications: RPMI/FBS was replaced by double distilled water in the experiments with H2O2 and TBHP and by tetrahydrofuran (THF) for the experiments with KO2; the temperature was kept at 25° C. The concentration of Compound I.1 was approximately 1 mM and the ration of concentrations of H2O2, TBHP and KO2 relative to Compound I.1 was 100:1. The amount of CO2 generated was also measured in the same experiment to ascertain the concurrent oxidation of coordinated CO. TBHP was added from a 70% aqueous solution and H2O2 from a 30% aqueous solution.

Series [2] can be described thus: Spontaneous CO release from suspensions (gas chromatography, TCD). The class given is physicochemical. To be noted: suspension in RPMI with 10% FBS, 37° C., dark. The method, then: CO detection was carried out by Gas Chromatography using a thermal conductivity detector (TCD) for the quantification of CO and CO2. The experiments were done under an initial atmosphere of reconstituted air, free of CO and CO2. […] […] Samples were withdrawn with gas-tight Hamilton syringes after homogenization of the head-space at given time intervals, preferably 2 hours, 4 hours and 6 hours. […] The volumes of CO released are usually in the range between 0.5-3 mL.
As a possible result of the use of suspensions, the number of CO equivalents released in RPMI varied slightly. As an example of the possible variations, the average of eight independent assays done with suspensions of Compound I.1 is given in Table 2.

The subject of a further series is rat arthritis model. To be noted: previously shown, US 2003/0068387; cited from earlier work.

With `O=[C][Mo]([I])([C]=O)([C]=O)([C]=O)[C]=O` [Compound I.6], the “Equivalents of CO2 released, H2O2” value is recorded as 0.14 equivalents in series [1] (1 h), 0.44 equivalents in series [1] (3 h), 0.51 equivalents in series [1] (5 h) and 0.35 equivalents in series [1] (24 h). Besides, the “Equivalents of CO released, H2O2” value in series [1] (1 h) is recorded as 1.31 equivalents; in series [1] (3 h) it was 3.04 equivalents; in series [1] (5 h) it was 3.20 equivalents; in series [1] (24 h), 1.91 equivalents. Besides, the “Equivalents of CO2 released, TBHP” value in series [1] (1 h) was 0.00 equivalents; in series [1] (3 h) it was 0.24 equivalents; in series [1] (5 h), 0.55 equivalents; in series [1] (24 h), 0.99 equivalents. In addition, the “Equivalents of CO released, TBHP” value in series [1] (1 h) is on record as 0.48 equivalents; in series [1] (3 h) it was 1.75 equivalents; in series [1] (5 h), 3.51 equivalents; in series [1] (24 h), 4.29 equivalents. For the same compound, the entries for the “Equivalents of CO released, RPMI” value in series [2] (2 hours), in series [2] (4 hours) and in series [2] (6 hours) were 0.42 equivalents of CO, 1.00 equivalents of CO and 1.25 equivalents of CO, respectively.

With `ClCCl` [Methylene chloride], the “effects in a rat arthritis model” value in the series on rat arthritis model was “beneficial effects”.

With `O=[C][Mo]([I])([C]=O)([C]=O)([C]=O)[C]=O` [Compound I.16, K(diglyme)3 [Mo(CO)5I]], the “Equivalents of CO released, RPMI” value is on record as 0.94 equivalents of CO in series [2] (2 hours), 1.20 equivalents of CO in series [2] (4 hours) and 1.28 equivalents of CO in series [2] (6 hours).

For the compound `O=[C][Mo]([I])([C]=O)([C]=O)([C]=O)[C]=O` [Compound I.18, [NH4](diglyme)3[Mo(CO)5I]], the results for the “Equivalents of CO released, RPMI” value in series [2] (2 hours), in series [2] (4 hours) and in series [2] (6 hours) were 0.55 equivalents of CO, 0.73 equivalents of CO and 0.79 equivalents of CO, respectively.
